Experimental data taken from PubChem BioAssay (NCI).
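Test compounds were applied to cells in 96-well plates for 48 hours at 5 doses. GI50 marks 50% less growth. TGI: total growth inhibition.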

How the values were obtained:
Experiment in all cases: inhibition of tumour cell growth, NCI panel, 48 h
[1] = system: OVCAR-4 ovarian
[2] = system: HOP-62 NSCLC
[3] = system: A549 NSCLC
[4] = system: NCI/ADR-RES ovarian
[5] = system: A498 renal
[6] = system: HCC-2998 colon
[7] = system: NCI-H522 lung
[8] = system: PC-3 prostate
[9] = system: OVCAR-5 ovarian
[10] = system: SR leukemia

C=C(C)C1CCC2(C(=O)O)CCC3(C)C(CCC4C5(C)CCC(OC(=O)NCc6ccccc6)C(C)(C)C5CCC43C)C12 (centres undefined)
GI50 [1]: 3.8 µM | TGI [1]: > 100 µM | GI50 [2]: 3.87 µM | TGI [2]: > 100 µM | GI50 [3]: 0.961 µM | TGI [3]: > 100 µM | GI50 [4]: 3.82 µM | TGI [4]: > 100 µM | GI50 [5]: 2.57 µM | TGI [5]: > 100 µM | GI50 [6]: 2.8 µM | TGI [6]: > 100 µM | GI50 [7]: 0.15 µM | TGI [7]: 10.4 µM | GI50 [8]: 1.2 µM | TGI [8]: 95.7 µM | GI50 [9]: 84.3 µM | TGI [9]: > 100 µM | GI50 [10]: 2.22 µM | TGI [10]: > 100 µM

CCOC(=O)c1c(C)nc2c(c1N)/C(=C/c1ccc(OC)cc1)C(=O)N2Cc1ccc(F)cc1
GI50 [1]: 0.392 µM | TGI [1]: 6.25 µM | GI50 [2]: 0.497 µM | TGI [2]: 2.17 µM | GI50 [3]: 0.385 µM | TGI [3]: 2.39 µM | GI50 [4]: 0.299 µM | GI50 [5]: 0.535 µM | TGI [5]: 2.6 µM | GI50 [6]: 0.255 µM | TGI [6]: 0.762 µM | GI50 [7]: 0.125 µM | TGI [7]: 0.296 µM | GI50 [8]: 0.277 µM | TGI [8]: 1 µM | GI50 [9]: 0.246 µM | TGI [9]: 0.561 µM | GI50 [10]: 0.0816 µM | TGI [10]: 0.726 µM

O=C(/C=C\n1cnc(-c2cc(C(F)(F)F)cc(C(F)(F)F)c2)n1)NNc1cnccn1
GI50 [1]: 0.0364 µM | TGI [1]: 14 µM | GI50 [2]: 0.289 µM | TGI [2]: 15.7 µM | GI50 [3]: 0.0785 µM | TGI [3]: 19 µM | GI50 [4]: 0.0933 µM | TGI [4]: 27.1 µM | GI50 [5]: 0.0216 µM | TGI [5]: 0.338 µM | GI50 [6]: 0.112 µM | TGI [6]: 1.93 µM | GI50 [7]: 0.128 µM | TGI [7]: 6.42 µM | GI50 [8]: 0.128 µM | TGI [8]: 15.7 µM | GI50 [9]: 0.189 µM | TGI [9]: 16.3 µM | GI50 [10]: 0.0362 µM | TGI [10]: > 100 µM

CS(=O)(=O)c1cc(=O)c2ccccc2s1
TGI [1]: 7.8 µM | TGI [2]: 41.3 µM | TGI [3]: 35.7 µM | TGI [4]: 38.8 µM | TGI [5]: 31.4 µM | TGI [6]: 30.5 µM | TGI [7]: 3.32 µM | TGI [8]: 33.4 µM | TGI [9]: 22.3 µM | TGI [10]: 8.09 µM

C=C1CC[C@@H]2[C@](C)(COC(C)=O)[C@H](OC(C)=O)CC[C@@]2(C)[C@@H]1CC(Nc1ccc(S(=O)(=O)Nc2ncccn2)cc1)C1=CCOC1=O (some centres undefined)
GI50 [1]: 1.85 µM | TGI [1]: 5.26 µM | GI50 [2]: 3.02 µM | TGI [2]: 6.44 µM | GI50 [3]: 3.18 µM | TGI [3]: 9.97 µM | GI50 [4]: 1.83 µM | TGI [4]: 5.28 µM | GI50 [5]: 12.3 µM | TGI [5]: 24.7 µM | GI50 [6]: 2.1 µM | TGI [6]: 3.81 µM | GI50 [7]: 0.498 µM | TGI [7]: 2.07 µM | GI50 [8]: 2.11 µM | TGI [8]: 5.07 µM | GI50 [9]: 1.98 µM | TGI [9]: 3.85 µM | GI50 [10]: 0.313 µM | TGI [10]: 17.2 µM

C/C(=N\Nc1ccc(Cl)cn1)c1ccccn1
GI50 [1]: 0.0485 µM | TGI [1]: > 59.4 µM | GI50 [2]: 0.167 µM | TGI [2]: > 42.1 µM | GI50 [3]: 0.364 µM | TGI [3]: > 100 µM | GI50 [4]: 0.037 µM | TGI [4]: > 31.6 µM | GI50 [5]: 0.174 µM | TGI [5]: 1.05 µM | GI50 [6]: 0.554 µM | TGI [6]: 68.2 µM | GI50 [7]: 0.039 µM | TGI [7]: 9.99 µM | GI50 [8]: 0.0464 µM | TGI [8]: > 100 µM | GI50 [9]: 0.225 µM | TGI [9]: > 100 µM | GI50 [10]: 0.0556 µM | TGI [10]: > 40.9 µM

COc1ccc(OC)c(C(=O)c2oc3ccc(Br)cc3c2N)c1
GI50 [1]: 3.61 µM | TGI [1]: > 100 µM | GI50 [2]: 0.49 µM | TGI [2]: > 50.6 µM | GI50 [3]: 0.493 µM | TGI [3]: > 54.6 µM | GI50 [4]: 0.341 µM | TGI [4]: > 77.7 µM | GI50 [5]: 0.0923 µM | TGI [5]: 1.56 µM | GI50 [6]: 1.32 µM | TGI [6]: 12.8 µM | GI50 [7]: 0.321 µM | TGI [7]: 4.14 µM | GI50 [8]: 0.58 µM | TGI [8]: > 51 µM | GI50 [9]: 1.56 µM | TGI [9]: > 51.7 µM | GI50 [10]: 0.193 µM | TGI [10]: 19.1 µM

CCc1oc2ccccc2c1C(=O)c1cc(I)c(O)c(I)c1
GI50 [1]: 5.07 µM | TGI [1]: 18.1 µM | GI50 [2]: 5.85 µM | TGI [2]: 20.3 µM | GI50 [3]: 3.61 µM | TGI [3]: 17.6 µM | GI50 [4]: 1.49 µM | TGI [4]: 5.25 µM | GI50 [5]: 3.84 µM | TGI [5]: 17 µM | GI50 [6]: 4.84 µM | TGI [6]: 17.5 µM | GI50 [7]: 1.84 µM | TGI [7]: 12.9 µM | GI50 [8]: 3.75 µM | TGI [8]: 19.5 µM | GI50 [9]: 11.4 µM | TGI [9]: 25.1 µM | GI50 [10]: 0.568 µM | TGI [10]: 17.9 µM

O=C(/C(=C/c1cccc([N+](=O)[O-])c1)c1ccccc1)c1ccccc1
GI50 [1]: 4.26 µM | TGI [1]: 16 µM | GI50 [2]: 2.87 µM | TGI [2]: 7.56 µM | GI50 [3]: 4.31 µM | TGI [3]: 30.1 µM | GI50 [4]: 2.98 µM | TGI [4]: > 100 µM | GI50 [5]: 2.69 µM | TGI [5]: 12.9 µM | GI50 [6]: 2.54 µM | TGI [6]: 6.27 µM | GI50 [7]: 1.91 µM | TGI [7]: 3.77 µM | GI50 [8]: 4.54 µM | TGI [8]: 36.2 µM | GI50 [9]: 5.56 µM | TGI [9]: 25.8 µM | GI50 [10]: 2.7 µM | TGI [10]: > 100 µM

CC[C@H](C)[C@H]1O[C@]2(C=C[C@@H]1C)C[C@@H]1C[C@@H](C/C=C(\C)[C@@H](O[C@H]3C[C@H](OC)[C@@H](O[C@H]4C[C@H](OC)[C@@H](NC)[C@H](C)O4)[C@H](C)O3)[C@@H](C)/C=C/C=C3\CO[C@@H]4[C@H](O)C(C)=C[C@@H](C(=O)O1)[C@]34O)O2
GI50 [1]: 3.3 µM | TGI [1]: 13.4 µM | GI50 [2]: 1.75 µM | TGI [2]: 4 µM | GI50 [3]: 2.01 µM | TGI [3]: 6.38 µM | GI50 [4]: 3.05 µM | TGI [4]: 11.3 µM | GI50 [5]: 2.68 µM | TGI [5]: 11.6 µM | GI50 [6]: 1.89 µM | TGI [6]: 3.36 µM | GI50 [7]: 1.75 µM | TGI [7]: 3.73 µM | GI50 [8]: 2.78 µM | TGI [8]: 11.7 µM | GI50 [9]: 3.41 µM | TGI [9]: 14.9 µM | GI50 [10]: 1.49 µM | TGI [10]: 4.17 µM

Cc1ccc(NC(=O)c2sc3nc(C)c(C(O)c4ccccc4)cc3c2N)cc1 (centres undefined)
GI50 [1]: 1.55 µM | TGI [1]: 47 µM | GI50 [2]: 0.716 µM | TGI [2]: 23.6 µM | GI50 [3]: 0.64 µM | TGI [3]: 32.7 µM | GI50 [4]: 0.39 µM | TGI [4]: 18.9 µM | GI50 [5]: 0.233 µM | TGI [5]: 1.04 µM | GI50 [6]: 0.818 µM | TGI [6]: 5.73 µM | GI50 [7]: 0.617 µM | TGI [7]: > 48.7 µM | GI50 [8]: 0.429 µM | TGI [8]: 20.7 µM | GI50 [9]: 0.698 µM | TGI [9]: 24.1 µM | GI50 [10]: 0.283 µM | TGI [10]: > 25.6 µM

Cc1ccc2c(c1)CN(C(=O)CCC(=O)OCc1ccccc1)c1ccc(C)cc1CN2C(=O)CCC(=O)OCc1ccccc1
TGI [1]: > 100 µM | TGI [2]: > 100 µM | TGI [3]: > 100 µM | TGI [4]: > 100 µM | TGI [5]: > 100 µM | TGI [6]: > 100 µM | TGI [7]: > 100 µM | TGI [8]: > 100 µM | TGI [9]: > 100 µM | TGI [10]: > 100 µM
